Measured values as given in paper PMC9243770, “Structural and Biophysical Characterization of Purified Recombinant Arabidopsis thaliana's Alternative Oxidase 1A (rAtAOX1A): Interaction With Inhibitor(s) and Activator” (Frontiers in Plant Science, 2022).

Assays:
[1] = biological target: T1, Alternative oxidase 1A (rAtAOX1A) (Arabidopsis thaliana, UniProt Q39219); experiment: oxygen uptake of purified enzyme with […] duroquinol (Clark-type electrode); format: biochemical
T1 construct: gene AOX1A; mature protein, N-terminal His6-tag, expressed in E. coli BL21(DE3)
T1 sequence (Q39219 63-354): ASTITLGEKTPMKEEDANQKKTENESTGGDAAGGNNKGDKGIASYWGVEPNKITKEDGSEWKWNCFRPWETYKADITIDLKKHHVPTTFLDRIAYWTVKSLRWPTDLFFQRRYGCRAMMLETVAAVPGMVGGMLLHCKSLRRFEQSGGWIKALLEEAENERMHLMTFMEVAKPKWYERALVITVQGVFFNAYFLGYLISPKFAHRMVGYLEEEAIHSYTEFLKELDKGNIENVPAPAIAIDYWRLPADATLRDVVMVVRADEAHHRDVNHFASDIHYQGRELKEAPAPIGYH

[2] = biological target: T1, Alternative oxidase 1A (rAtAOX1A); experiment: SPR (Biacore, CM5 chip, […] Langmuir kinetic fit); also CD and inhibition of cell respiration; format: binding

Compound | oxygen uptake of purified enzyme with 600 μM duroquinol (Clark-type electrode) [1] | Kd [2] [nM]
Cc1c(C)c(O)c(C)c(C)c1O [DQH2, duroquinol] | 3.86 μmol O2 min^−1 mg^−1 protein | 
O=C(NO)c1ccccc1O [SHAM, salicylhydroxamic acid] |  | 3.08
CCCOC(=O)c1cc(O)c(O)c(O)c1 [n-PG, n-propyl gallate] |  | 0.491
